Non-standard residues stand in square brackets, D forms with d. No end group written: not given here. *: point of attachment. Biotin = O=C1N[C@H]2[C@H](CS[C@H]2CCCCC(=O)*)N1; acyl = not defined here; Ahx = NCCCCCC(=O)O
Tested on: HUVECs
Format: cell-based
Details: HUVEC proliferation, bFGF at 10 ng/ml or VEGF at 5 ng/ml, 48 hours, BrdU incorporation; read-out: IC50 on HUVECs
Procedure: HUVECs were routinely cultured to near confluency in EGM media (Clontech, Mountain View, California). The cells were trypsinized and plated in a 96-well plate at 5,000 cells per well per 100 μl EBM supplemented with 2% FCS and antibiotics. The cells were allowed to adhere to the plate for at least 12 hours. Then, bFGF at 10 ng/ml or VEGF at 5 ng/ml, and various concentrations of peptide, were added to the wells. The cells were cultured for 48 hours at 37 ° C. in a 5% CO2 atmosphere. Cell proliferation was determined using a bromo-deoxyuridine (BrdU) incorporation method as described by the manufacturer. Inhibition of cell proliferation was assessed by BrdU incorporation.

Row | Substance | IC50 [µM]
1 | 1 ([Ahx]RTRRRRRRQRVRIAYEEIFVRNM) [compound 1] | < 10
2 | 27 (Ac-RTRRRRRRQRVRIAYEEIFVRNM[Ahx]K; not fully specified) [compound 27] | 10 to 30
3 | 28 (Ac-RTRRRRRRQRVRIAYEEIFVRNM[Ahx]K-NH2; not fully specified (residue 25); also: homodimer via Ida linker on Lys25 side chain, Ida amino group carries Boc) [compound 28] | < 10
4 | 51 (Ac-KTKRKRKKQRVKIAYEEIFVQNMK; also: homodimer via Ida linker on Lys24 side chain) [compound 51] | < 10
5 | 59 ([Ahx]RTRRRRRRQRVRIAYEEIFVRNM; also: homodimer of residues 1-24 via Ida linker on Ahx amino group) [compound 59] | > 30
6 | 104 (Ac-KTKRKRKKQRVKIIFVQNM; also: homodimer via C-terminal Lys linker) [compound 104] | < 10
7 | 128 (KTKRKRKKQRVKI[Ahx][Ahx]IF; also: dimer: C-terminus of Phe17 of each chain bound to one amino group of a Lysine linker) [compound 128] | < 10
8 | 129 (TKRKRKKQRVKI[Ahx][Ahx]IF; also: dimer: C-terminus of Phe16 of each chain bound to one amino group of a Lysine linker) [compound 129] | < 10
9 | 135 (KRKRKKQRVKI[Ahx][Ahx]IF; also: dimer: C-terminus of Phe15 of each chain bound to one amino group of a Lysine linker) [compound 135] | < 10
10 | 166 (Biotin-TKRKRKKQRVKIIFV; also: Thr1 biotinylated) [compound 166] | 10 to 30
11 | 168 (Ac-RRRRRQRVRIIFK; also: homodimer via GP3 linker on Lys13 side chains) [compound 168] | < 10
12 | 169 (Ac-KRRRRRQRVRIIF; also: homodimer via Ida linker on Lys1 side chains) [compound 169] | < 10
13 | 170 (Ac-RRRRRQRVRIIFK; also: homodimer via Ida-PEG 20 kDa linker on Lys13 side chains) [compound 170] | < 10
14 | 171 (Ac-RRRRRQRVRIIFK; also: homodimer via GP3-PEG 20 kDa linker on Lys13 side chains) [compound 171] | < 10
15 | 172 (acyl-KRRRRRQRVRIIF; not fully specified (residue 1); reading uncertain; also: homodimer via Ida-PEG 20 kDa linker on Lys1 side chains, acyl group not given here) [compound 172] | < 10
16 | 173 (Ac-ARRRRQRVRIIF; also: homodimer: C-terminal Phe12 of each chain bound to one amino group of a Lys linker) [compound 173] | < 10
17 | 174 (Ac-RARRRQRVRIIF; also: homodimer via C-terminal Lys linker) [compound 174] | < 10
18 | 175 (Ac-RRARRQRVRIIF; also: homodimer via C-terminal Lys linker) [compound 175] | < 10
19 | 176 (Ac-RRRARQRVRIIF; also: homodimer via C-terminal Lys linker) [compound 176] | < 10

Row | Substance | IC50 [µM]
20 | 177 (Ac-RRRRAQRVRIIF; also: homodimer via C-terminal Lys linker) [compound 177] | < 10
21 | 178 (Ac-RRRRRQAVRIIF; also: dimer: C-terminus of Phe12 of each chain bound to one amino group of a Lys linker) [compound 178] | < 10
22 | 179 (Ac-RRRRRQRVAIIF; also: dimer: C-terminus of Phe12 of each chain bound to one amino group of a Lys linker) [compound 179] | < 10
23 | 184 (XRRRRQRVRIIF; Xaa = Acylated Histidine; Dimeric peptide wherein the C terminus of Phe in position 12 of one peptide chain is covalently bound to one of the amino groups of a Lysine linker and Phe of the remaining peptide chain is covalently bound to the other amino group of the Lysine linker.) [compound 184] | < 10
24 | 185 (Ac-RHRRRQRVRIIF; also: homodimer via C-terminal Lys linker) [compound 185] | < 10
25 | 186 (Ac-RRHRRQRVRIIF; also: homodimer via C-terminal Lys linker) [compound 186] | < 10
26 | 187 (Ac-RRRHRQRVRIIF; also: dimer: C-terminal Phe bound to an amino group of a Lys linker, 2 chains per Lys) [compound 187] | < 10
27 | 188 (Ac-RRRRHQRVRIIF; also: dimer: C-terminal Phe bound to an amino group of a Lys linker, 2 chains per Lys) [compound 188] | < 10
28 | 189 (Ac-RRRRRQHVRIIF; also: dimer: C-terminal Phe bound to an amino group of a Lys linker, 2 chains per Lys) [compound 189] | < 10
29 | 190 (Ac-RRRRRQRVHIIF; also: dimer: C-terminal Phe bound to an amino group of a Lys linker, 2 chains per Lys) [compound 190] | < 10
30 | 191 (Ac-AARRRQRVRIIF; also: dimer: C-terminal Phe bound to an amino group of a Lys linker, 2 chains per Lys) [compound 191] | < 10
31 | 192 (Ac-ARARRQRVRIIF; also: dimer: C-terminal Phe bound to an amino group of a Lys linker, 2 chains per Lys) [compound 192] | < 10
32 | 193 (Ac-ARRARQRVRIIF; also: dimer: C-terminal Phe bound to an amino group of a Lys linker, 2 chains per Lys) [compound 193] | < 10
33 | 194 (Ac-ARRRAQRVRIIF; also: dimer: C-terminal Phe bound to an amino group of a Lys linker, 2 chains per Lys) [compound 194] | < 10
34 | 195 (Ac-ARRRRQAVRIIF; also: dimer: C-terminal Phe bound to an amino group of a Lys linker, 2 chains per Lys) [compound 195] | < 10
35 | 196 (Ac-ARRRRQRVAIIF; also: dimer: C-terminal Phe bound to an amino group of a Lys linker, 2 chains per Lys) [compound 196] | < 10
36 | 197 (Ac-RAARRQRVRIIF; also: dimer: C-terminal Phe bound to an amino group of a Lys linker, 2 chains per Lys) [compound 197] | < 10
37 | 198 (Ac-RARARQRVRIIF; also: dimer: C-terminal Phe bound to an amino group of a Lys linker, 2 chains per Lys) [compound 198] | < 10

Reference: patent US20070203066A1, “Compositions and methods for inhibiting cellular proliferation” (priority 2005, published 2007)
